Measurements published in ChEMBL document CHEMBL1782038, “Heterocyclic replacement of the central phenyl core of diamine-based histamine H3 receptor antagonists” (Eur J Med Chem, 2009).

Experiments:
[1] = organism: Rattus norvegicus; conditions: in vivo, po, 10 mg/kg
[2] = in vivo; conditions: Sprague-Dawley, rat, iv, 1 mg/kg
[3] = in vivo; conditions: Sprague-Dawley, rat, po, 10 mg/kg
[4] = in vivo; conditions: Sprague-Dawley, rat, iv, 1 mg/kg; remark: listed apart in the source
[5] = in vivo; conditions: Sprague-Dawley, rat, po, 10 mg/kg; remark: listed apart in the source
[6] = in vivo; conditions: Sprague-Dawley, rat, iv, 1 mg/kg; remark: listed apart in the source
[7] = in vivo; conditions: Sprague-Dawley, rat, po, 10 mg/kg; remark: listed apart in the source
[8] = in vivo; conditions: Sprague-Dawley, rat, po, 10 mg/kg; remark: listed apart in the source

Vz [1]: 41.1 L
Vd [2]: 10.6 L
CL/F [3]: 18.3 mL/min
clearance [4]: 9.67 mL/min
half-life [5]: 33.6 h
half-life [6]: 13.8 h
bioavailability [7]: 54%
Tmax [8]: 1.7 h
SMILES: CC(C)N1CCN(C(=O)c2ccc(CN3CCCCC3)cc2)CC1
